Experimental data from PubChem BioAssay (NCI).
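Briefly, cells in 96-well plates were exposed to five compound concentrations for 48 h, and endpoints were estimated by linear interpolation. The concentration for 50% growth inhibition is given as GI50. TGI is the concentration that stops growth completely.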

Legend:
Experiment in all cases: DTP human tumour cell line panel, 48 h
HCT-15 colon = tested on: HCT-15 colon
ACHN renal = tested on: ACHN renal
IGROV1 ovarian = tested on: IGROV1 ovarian
MDA-MB-435 = tested on: MDA-MB-435
EKVX NSCLC = tested on: EKVX NSCLC
SNB-19 CNS = tested on: SNB-19 CNS
RPMI-8226 leukemia = tested on: RPMI-8226 leukemia
A498 renal = tested on: A498 renal
NCI/ADR-RES ovarian = tested on: NCI/ADR-RES ovarian
UACC-257 melanoma = tested on: UACC-257 melanoma
HS 578T breast = tested on: HS 578T breast
SK-MEL-28 melanoma = tested on: SK-MEL-28 melanoma
HCT-116 colon = tested on: HCT-116 colon
OVCAR-4 ovarian = tested on: OVCAR-4 ovarian
PC-3 prostate = tested on: PC-3 prostate
MCF7 breast = tested on: MCF7 breast
MDA-MB-231 breast = tested on: MDA-MB-231 breast
HT29 colon = tested on: HT29 colon
K-562 leukemia = tested on: K-562 leukemia
NCI-H226 lung = tested on: NCI-H226 lung
SF-295 CNS = tested on: SF-295 CNS
CAKI-1 renal = tested on: CAKI-1 renal
COLO 205 colon = tested on: COLO 205 colon
U251 CNS = tested on: U251 CNS
HCC-2998 colon = tested on: HCC-2998 colon
DU-145 prostate = tested on: DU-145 prostate
OVCAR-3 ovarian = tested on: OVCAR-3 ovarian
T-47D breast = tested on: T-47D breast
CCRF-CEM leukemia = tested on: CCRF-CEM leukemia
KM12 colon = tested on: KM12 colon
BT-549 breast = tested on: BT-549 breast
786-0 renal = tested on: 786-0 renal
SW-620 colon = tested on: SW-620 colon
SK-MEL-5 melanoma = tested on: SK-MEL-5 melanoma
HOP-62 NSCLC = tested on: HOP-62 NSCLC
RXF 393 renal = tested on: RXF 393 renal
OVCAR-5 ovarian = tested on: OVCAR-5 ovarian
NCI-H460 lung = tested on: NCI-H460 lung
SN12C renal = tested on: SN12C renal
TK-10 renal = tested on: TK-10 renal
SK-OV-3 ovarian = tested on: SK-OV-3 ovarian
HOP-92 NSCLC = tested on: HOP-92 NSCLC
LOX IMVI melanoma = tested on: LOX IMVI melanoma
SK-MEL-2 melanoma = tested on: SK-MEL-2 melanoma
OVCAR-8 ovarian = tested on: OVCAR-8 ovarian
NCI-H23 lung = tested on: NCI-H23 lung
A549 NSCLC = tested on: A549 NSCLC
UACC-62 melanoma = tested on: UACC-62 melanoma
NCI-H522 lung = tested on: NCI-H522 lung
SF-268 CNS = tested on: SF-268 CNS
HL-60(TB) leukemia = tested on: HL-60(TB) leukemia
SF-539 CNS = tested on: SF-539 CNS
SNB-75 CNS = tested on: SNB-75 CNS
M14 melanoma = tested on: M14 melanoma
MALME-3M melanoma = tested on: MALME-3M melanoma
MOLT-4 leukemia = tested on: MOLT-4 leukemia
UO-31 renal = tested on: UO-31 renal

For `COc1ccc(C2C3=C(COC3=O)N(CCO)c3cc4c(cc32)CCC4)cc1` (centres undefined), which GI50 (HCT-15 colon) is on record?
The GI50 was 6.04 µM.

What about the TGI (HCT-15 colon) of the same compound?
Its TGI is over 50 µM.

What about the GI50 (ACHN renal) of the same compound?
Its GI50 is 24 µM.

And the TGI (ACHN renal)?
Its TGI is over 50 µM.

What about the GI50 (IGROV1 ovarian) of the same compound?
The GI50 was 2.15 µM.

What about the TGI (IGROV1 ovarian) of the same compound?
Its TGI is 18.4 µM.

And the GI50 (MDA-MB-435)?
Its GI50 is 1.13 µM.

And the TGI (MDA-MB-435)?
Its TGI is 5.09 µM.

And the GI50 (EKVX NSCLC)?
The GI50 was 13.5 µM.

What about the TGI (EKVX NSCLC) of the same compound?
The TGI was over 50 µM.

What about the GI50 (SNB-19 CNS) of the same compound?
Its GI50 is 7.48 µM.

And the TGI (SNB-19 CNS)?
Its TGI is over 50 µM.

What about the GI50 (RPMI-8226 leukemia) of the same compound?
Its GI50 is 11.4 µM.

What about the TGI (RPMI-8226 leukemia) of the same compound?
Its TGI is over 50 µM.

And the GI50 (A498 renal)?
Its GI50 is 2.36 µM.

And the TGI (A498 renal)?
The TGI was over 50 µM.

What about the GI50 (NCI/ADR-RES ovarian) of the same compound?
Its GI50 is 3.89 µM.

And the TGI (NCI/ADR-RES ovarian)?
The TGI was 25.8 µM.

And the GI50 (UACC-257 melanoma)?
Its GI50 is 4.34 µM.

What about the TGI (UACC-257 melanoma) of the same compound?
The TGI was over 50 µM.

And the GI50 (HS 578T breast)?
The GI50 was 4.11 µM.

What about the TGI (HS 578T breast) of the same compound?
Its TGI is 42 µM.

And the GI50 (SK-MEL-28 melanoma)?
Its GI50 is 5.31 µM.

What about the TGI (SK-MEL-28 melanoma) of the same compound?
Its TGI is over 50 µM.

What about the GI50 (HCT-116 colon) of the same compound?
The GI50 was 2.12 µM.

What about the TGI (HCT-116 colon) of the same compound?
The TGI was over 50 µM.

What about the GI50 (OVCAR-4 ovarian) of the same compound?
The GI50 was 5.46 µM.

What about the TGI (OVCAR-4 ovarian) of the same compound?
Its TGI is over 50 µM.

What about the GI50 (PC-3 prostate) of the same compound?
Its GI50 is 6.22 µM.

What about the TGI (PC-3 prostate) of the same compound?
Its TGI is over 50 µM.

And the GI50 (MCF7 breast)?
Its GI50 is 1.86 µM.

What about the TGI (MCF7 breast) of the same compound?
Its TGI is over 50 µM.

And the GI50 (MDA-MB-231 breast)?
The GI50 was 10.9 µM.

What about the TGI (MDA-MB-231 breast) of the same compound?
Its TGI is over 50 µM.

And the GI50 (HT29 colon)?
Its GI50 is 1.7 µM.

What about the TGI (HT29 colon) of the same compound?
Its TGI is 24.9 µM.

And the GI50 (K-562 leukemia)?
Its GI50 is 1.69 µM.

And the TGI (K-562 leukemia)?
Its TGI is over 50 µM.

And the GI50 (NCI-H226 lung)?
Its GI50 is 21.4 µM.

And the TGI (NCI-H226 lung)?
The TGI was over 50 µM.

And the GI50 (SF-295 CNS)?
The GI50 was 1.49 µM.

And the TGI (SF-295 CNS)?
Its TGI is 6.7 µM.

What about the GI50 (CAKI-1 renal) of the same compound?
Its GI50 is 3.1 µM.

And the TGI (CAKI-1 renal)?
The TGI was 27.7 µM.

What about the GI50 (COLO 205 colon) of the same compound?
Its GI50 is 6.2 µM.

What about the TGI (COLO 205 colon) of the same compound?
The TGI was over 50 µM.

And the GI50 (U251 CNS)?
The GI50 was 3.16 µM.

And the TGI (U251 CNS)?
The TGI was over 50 µM.

What about the GI50 (HCC-2998 colon) of the same compound?
Its GI50 is 5.76 µM.

What about the TGI (HCC-2998 colon) of the same compound?
The TGI was 25.8 µM.

And the GI50 (DU-145 prostate)?
Its GI50 is 5.04 µM.

What about the TGI (DU-145 prostate) of the same compound?
Its TGI is 20.2 µM.

And the GI50 (OVCAR-3 ovarian)?
The GI50 was 1.07 µM.

What about the TGI (OVCAR-3 ovarian) of the same compound?
The TGI was 2.97 µM.

What about the GI50 (T-47D breast) of the same compound?
The GI50 was 3.87 µM.

What about the TGI (T-47D breast) of the same compound?
Its TGI is over 50 µM.

And the GI50 (CCRF-CEM leukemia)?
The GI50 was 3.98 µM.

What about the TGI (CCRF-CEM leukemia) of the same compound?
The TGI was over 50 µM.

What about the GI50 (KM12 colon) of the same compound?
Its GI50 is 2.31 µM.

And the TGI (KM12 colon)?
Its TGI is over 50 µM.

And the GI50 (BT-549 breast)?
Its GI50 is 2.38 µM.

What about the TGI (BT-549 breast) of the same compound?
The TGI was 25.2 µM.

What about the GI50 (786-0 renal) of the same compound?
Its GI50 is 4.8 µM.

And the TGI (786-0 renal)?
Its TGI is over 50 µM.

What about the GI50 (SW-620 colon) of the same compound?
Its GI50 is 2.17 µM.

What about the TGI (SW-620 colon) of the same compound?
Its TGI is over 50 µM.

And the GI50 (SK-MEL-5 melanoma)?
Its GI50 is 2.38 µM.

And the TGI (SK-MEL-5 melanoma)?
Its TGI is over 50 µM.

What about the GI50 (HOP-62 NSCLC) of the same compound?
Its GI50 is 9.02 µM.

And the TGI (HOP-62 NSCLC)?
Its TGI is over 50 µM.

What about the GI50 (RXF 393 renal) of the same compound?
The GI50 was 4.24 µM.

And the TGI (RXF 393 renal)?
Its TGI is 27.1 µM.

What about the GI50 (OVCAR-5 ovarian) of the same compound?
Its GI50 is over 50 µM.

What about the TGI (OVCAR-5 ovarian) of the same compound?
Its TGI is over 50 µM.

What about the GI50 (NCI-H460 lung) of the same compound?
Its GI50 is 2.37 µM.

What about the TGI (NCI-H460 lung) of the same compound?
Its TGI is 26.9 µM.

And the GI50 (SN12C renal)?
The GI50 was 19 µM.

And the TGI (SN12C renal)?
The TGI was over 50 µM.

What about the GI50 (TK-10 renal) of the same compound?
The GI50 was 3.36 µM.

And the TGI (TK-10 renal)?
Its TGI is 39.9 µM.

And the GI50 (SK-OV-3 ovarian)?
Its GI50 is 8.78 µM.

What about the TGI (SK-OV-3 ovarian) of the same compound?
Its TGI is over 50 µM.

And the GI50 (HOP-92 NSCLC)?
Its GI50 is over 50 µM.

What about the TGI (HOP-92 NSCLC) of the same compound?
Its TGI is over 50 µM.

What about the GI50 (LOX IMVI melanoma) of the same compound?
The GI50 was 3.1 µM.

What about the TGI (LOX IMVI melanoma) of the same compound?
The TGI was over 50 µM.

And the GI50 (SK-MEL-2 melanoma)?
Its GI50 is 1.45 µM.

What about the TGI (SK-MEL-2 melanoma) of the same compound?
The TGI was 4.74 µM.

And the GI50 (OVCAR-8 ovarian)?
Its GI50 is 14.2 µM.

What about the TGI (OVCAR-8 ovarian) of the same compound?
The TGI was over 50 µM.

And the GI50 (NCI-H23 lung)?
Its GI50 is 7.05 µM.

What about the TGI (NCI-H23 lung) of the same compound?
Its TGI is over 50 µM.

What about the GI50 (A549 NSCLC) of the same compound?
Its GI50 is 3.84 µM.

What about the TGI (A549 NSCLC) of the same compound?
Its TGI is over 50 µM.

And the GI50 (UACC-62 melanoma)?
Its GI50 is 2.65 µM.

What about the TGI (UACC-62 melanoma) of the same compound?
Its TGI is over 50 µM.

What about the GI50 (NCI-H522 lung) of the same compound?
The GI50 was 0.808 µM.

And the TGI (NCI-H522 lung)?
The TGI was 3.73 µM.

And the GI50 (SF-268 CNS)?
Its GI50 is 7.05 µM.

And the TGI (SF-268 CNS)?
Its TGI is over 50 µM.

What about the GI50 (HL-60(TB) leukemia) of the same compound?
Its GI50 is 1.18 µM.

What about the TGI (HL-60(TB) leukemia) of the same compound?
The TGI was 3.98 µM.

What about the GI50 (SF-539 CNS) of the same compound?
Its GI50 is 5.09 µM.

What about the TGI (SF-539 CNS) of the same compound?
Its TGI is 28.5 µM.

What about the GI50 (SNB-75 CNS) of the same compound?
Its GI50 is 1.46 µM.

What about the TGI (SNB-75 CNS) of the same compound?
The TGI was 13.7 µM.

And the GI50 (M14 melanoma)?
Its GI50 is 2.32 µM.

What about the TGI (M14 melanoma) of the same compound?
Its TGI is 21.1 µM.

And the GI50 (MALME-3M melanoma)?
The GI50 was 3.06 µM.

And the TGI (MALME-3M melanoma)?
Its TGI is over 50 µM.

What about the GI50 (MOLT-4 leukemia) of the same compound?
Its GI50 is 2.2 µM.

What about the TGI (MOLT-4 leukemia) of the same compound?
Its TGI is over 50 µM.

What about the GI50 (UO-31 renal) of the same compound?
The GI50 was 5.86 µM.

What about the TGI (UO-31 renal) of the same compound?
The TGI was over 50 µM.
